Measured values: PubChem BioAssay AID1919002 (Molecular Pharmacology Branch, DTP, NCI, 2023)
Blank lines part the entries; values can stand above or below the molecule they belong to.

System: 743489-274-T-PDC complex spheroid growth
Experiment: Anticancer human tumor 743489-274-T-PDC patient-derived renal cell carcinoma cell line growth inhibition [AhR]
Settings: for IC50: curve of first compound; for viability, T/C: stronger effect = lower value
Summary of the method: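 Spheroids combined tumor cells with HUVEC endothelial cells and human MSCs as stroma. AhR antagonists were paired with standard or investigational drugs, each dosed in half-log steps down from near clinical Cmax, or from 10 microM where Cmax was unknown.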

[1] = second compound 0.1 µM, first compound 0.0316 µM
[2] = second compound 0.1 µM, first compound 0.1 µM
[3] = second compound 0.1 µM, first compound 0.316 µM
[4] = second compound 0.1 µM, first compound 1 µM
[5] = second compound 0.1 µM, first compound 3.16 µM
[6] = second compound 0.1 µM, first compound 10 µM
[7] = second compound 0.316 µM, first compound 0.0316 µM
[8] = second compound 0.316 µM, first compound 0.1 µM
[9] = second compound 0.316 µM, first compound 0.316 µM
[10] = second compound 0.316 µM, first compound 1 µM
[11] = second compound 0.316 µM, first compound 3.16 µM
[12] = second compound 0.316 µM, first compound 10 µM
[13] = second compound 1 µM, first compound 0.0316 µM
[14] = second compound 1 µM, first compound 0.1 µM
[15] = second compound 1 µM, first compound 0.316 µM
[16] = second compound 1 µM, first compound 1 µM
[17] = second compound 1 µM, first compound 3.16 µM
[18] = second compound 1 µM, first compound 10 µM
[19] = second compound 3.16 µM, first compound 0.0316 µM
[20] = second compound 3.16 µM, first compound 0.1 µM
[21] = second compound 3.16 µM, first compound 0.316 µM
[22] = second compound 3.16 µM, first compound 1 µM
[23] = second compound 3.16 µM, first compound 3.16 µM
[24] = second compound 3.16 µM, first compound 10 µM
[25] = second compound 10 µM, first compound 0.0316 µM
[26] = second compound 10 µM, first compound 0.1 µM
[27] = second compound 10 µM, first compound 0.316 µM
[28] = second compound 10 µM, first compound 1 µM
[29] = second compound 10 µM, first compound 3.16 µM
[30] = second compound 10 µM, first compound 10 µM
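Also: spheroids exposed to agents for 7 days before readout.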
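For viability, T/C in this document: 100% = DMSO vehicle control wells.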

- IC50 (second compound 0.1 µM): 3.86 µM
- IC50 (second compound 0.316 µM): 3.13 µM
- IC50 (second compound 1 µM): 2.82 µM
- IC50 (second compound 3.16 µM): 4.55 µM
- IC50 (second compound 10 µM): > 10 µM
Structure (SMILES): COc1ccc([C@@H](O)c2cc(-c3ncnc4cc(N5CCOCC5)ccc34)c(F)cc2Cl)nn1 + Cc1cncc(-c2nc(NCCc3c[nH]c4ccccc34)c3ncn(C(C)C)c3n2)c1
- viability, T/C [1]: 95.3%
- viability, T/C [2]: 98.9%
- viability, T/C [3]: 90.3%
- viability, T/C [4]: 98.1%
- viability, T/C [5]: 52.9%
- viability, T/C [6]: 36.1%
- viability, T/C [7]: 94.2%
- viability, T/C [8]: 94.6%
- viability, T/C [9]: 88.4%
- viability, T/C [10]: 82.8%
- viability, T/C [11]: 49.4%
- viability, T/C [12]: 29.4%
- viability, T/C [13]: 99.5%
- viability, T/C [14]: 95%
- viability, T/C [15]: 93.2%
- viability, T/C [16]: 84.7%
- viability, T/C [17]: 46%
- viability, T/C [18]: 35.5%
- viability, T/C [19]: 112%
- viability, T/C [20]: 118%
- viability, T/C [21]: 102%
- viability, T/C [22]: 87.5%
- viability, T/C [23]: 53.8%
- viability, T/C [24]: 39.4%
- viability, T/C [25]: 114%
- viability, T/C [26]: 119%
- viability, T/C [27]: 102%
- viability, T/C [28]: 99.3%
- viability, T/C [29]: 65.5%
- viability, T/C [30]: 59.5%

- IC50 (second compound 0.1 µM): > 10 µM
- IC50 (second compound 0.316 µM): > 10 µM
- IC50 (second compound 1 µM): > 10 µM
- IC50 (second compound 3.16 µM): > 10 µM
- IC50 (second compound 10 µM): > 10 µM
Structure (SMILES): COc1cc(Nc2ncc3c(n2)-c2ccc(Cl)cc2C(c2c(F)cccc2OC)=NC3)ccc1C(=O)O + Cc1cncc(-c2nc(NCCc3c[nH]c4ccccc34)c3ncn(C(C)C)c3n2)c1
- viability, T/C [1]: 94.2%
- viability, T/C [2]: 103%
- viability, T/C [3]: 84.6%
- viability, T/C [4]: 99.8%
- viability, T/C [5]: 93.7%
- viability, T/C [6]: 91.8%
- viability, T/C [7]: 97.7%
- viability, T/C [8]: 85%
- viability, T/C [9]: 94%
- viability, T/C [10]: 85.1%
- viability, T/C [11]: 85%
- viability, T/C [12]: 78.9%
- viability, T/C [13]: 99%
- viability, T/C [14]: 95.2%
- viability, T/C [15]: 95.9%
- viability, T/C [16]: 86%
- viability, T/C [17]: 95.3%
- viability, T/C [18]: 82.4%
- viability, T/C [19]: 107%
- viability, T/C [20]: 98%
- viability, T/C [21]: 96.1%
- viability, T/C [22]: 107%
- viability, T/C [23]: 90.1%
- viability, T/C [24]: 98.9%
- viability, T/C [25]: 119%
- viability, T/C [26]: 126%
- viability, T/C [27]: 101%
- viability, T/C [28]: 76.8%
- viability, T/C [29]: 79.4%
- viability, T/C [30]: 85.8%

- IC50 (second compound 0.1 µM): 5.54 µM
- IC50 (second compound 0.316 µM): 5.43 µM
- IC50 (second compound 1 µM): 9.11 µM
- IC50 (second compound 3.16 µM): 8.62 µM
- IC50 (second compound 10 µM): 4.79 µM
Structure (SMILES): COc1cccc2c1C(=O)c1c(O)c3c(c(O)c1C2=O)CC(O)(C(=O)CO)CC3OC1CC(N)C(O)C(C)O1 (stereo not given) + Cc1ccccc1N=Nc1ccc(NC(=O)c2ccnn2C)c(C)c1
- viability, T/C [1]: 102%
- viability, T/C [2]: 97.3%
- viability, T/C [3]: 114%
- viability, T/C [4]: 102%
- viability, T/C [5]: 73.3%
- viability, T/C [6]: 25.6%
- viability, T/C [7]: 107%
- viability, T/C [8]: 96.8%
- viability, T/C [9]: 99.7%
- viability, T/C [10]: 105%
- viability, T/C [11]: 81.4%
- viability, T/C [12]: 14.5%
- viability, T/C [13]: 96%
- viability, T/C [14]: 101%
- viability, T/C [15]: 98.6%
- viability, T/C [16]: 95.2%
- viability, T/C [17]: 80.4%
- viability, T/C [18]: 47.3%
- viability, T/C [19]: 90%
- viability, T/C [20]: 88.8%
- viability, T/C [21]: 105%
- viability, T/C [22]: 96%
- viability, T/C [23]: 87.3%
- viability, T/C [24]: 44.3%
- viability, T/C [25]: 85.3%
- viability, T/C [26]: 82.2%
- viability, T/C [27]: 95.1%
- viability, T/C [28]: 83.5%
- viability, T/C [29]: 71.9%
- viability, T/C [30]: 11.7%
